pIC50: −log10 of the molar value.
Columns and labels:
[1] = system: NCI-H322M; assay: Cytotoxicity against human NCI-H322M cells assessed as growth inhibition after 48 hrs by sulforhodamine B assay; format: functional; settings: for CC50: read-out: LC50 (the source's name)
[2] = system: HCC 2998; assay: Cytotoxicity against human HCC2998 cells assessed as growth inhibition after 48 hrs by sulforhodamine B assay; format: functional; settings: HCC 2998, 48 h
[3] = system: SW-620; assay: Cytotoxicity against human SW620 cells assessed as growth inhibition after 48 hrs by sulforhodamine B assay; format: functional; settings: SW-620, 48 h
[4] = system: UACC-257; assay: Cytotoxicity against human UACC257 cells assessed as growth inhibition after 48 hrs by sulforhodamine B assay; format: functional; settings: UACC-257, 48 h
[5] = system: SK-OV-3; assay: Cytotoxicity against human SKOV3 cells assessed as growth inhibition after 48 hrs by sulforhodamine B assay; format: functional; settings: SK-OV-3, 48 h
[6] = system: MCF7; assay: Cytotoxicity against human MCF7 cells assessed as growth inhibition after 48 hrs by MTT assay; format: functional, cell-based; settings: MCF7, 48 h
[7] = system: OVCAR-5; assay: Cytotoxicity against human OVCAR5 cells assessed as cell growth at 0.01 uM after 48 hrs by sulforhodamine B assay relative to control; format: functional; settings: OVCAR-5, 48 h, read-out: Activity
[8] = system: OVCAR-4; assay: Cytotoxicity against human OVCAR4 cells assessed as cell growth at 0.01 uM after 48 hrs by sulforhodamine B assay relative to control; format: functional; settings: OVCAR-4, 48 h, read-out: Activity
[9] = system: SF-268; assay: Cytotoxicity against human SF268 cells assessed as cell growth at 0.01 uM after 48 hrs by sulforhodamine B assay relative to control; format: functional; settings: SF-268, 48 h, read-out: Activity
[10] = system: KM12; assay: Cytotoxicity against human KM12 cells assessed as cell growth at 0.01 uM after 48 hrs by sulforhodamine B assay relative to control; format: functional; settings: KM12, 48 h, read-out: Activity
[11] = system: COLO 205; assay: Cytotoxicity against human COLO205 cells assessed as cell growth at 0.01 uM after 48 hrs by sulforhodamine B assay relative to control; format: functional; settings: COLO 205, 48 h, read-out: Activity
[12] = system: HOP-62; assay: Cytotoxicity against human HOP62 cells assessed as cell growth at 0.01 uM after 48 hrs by sulforhodamine B assay relative to control; format: functional; settings: HOP-62, 48 h, read-out: Activity
[13] = system: MOLT-4; assay: Cytotoxicity against human MOLT4 cells assessed as cell growth at 0.01 uM after 48 hrs by sulforhodamine B assay relative to control; format: functional; settings: MOLT-4, 48 h, read-out: Activity
[14] = system: MDA-MB-231; assay: Cytotoxicity against human MDA-MB-231 cells assessed as cell growth at 0.01 uM after 48 hrs by sulforhodamine B assay relative to control; format: functional; settings: MDA-MB-231, 48 h, read-out: Activity
[15] = system: BT-549; assay: Cytotoxicity against human BT549 cells assessed as cell growth at 0.01 uM after 48 hrs by sulforhodamine B assay relative to control; format: functional; settings: BT-549, 48 h, read-out: Activity
[16] = system: SW-620; assay: Cytotoxicity against human SW620 cells assessed as cell growth at 0.1 uM after 48 hrs by sulforhodamine B assay relative to control; format: functional; settings: SW-620, 48 h, read-out: Activity
[17] = system: IGROV-1; assay: Cytotoxicity against human IGROV1 cells assessed as cell growth at 0.1 uM after 48 hrs by sulforhodamine B assay relative to control; format: functional; settings: IGROV-1, 48 h, read-out: Activity
[18] = system: CCRF-CEM; assay: Cytotoxicity against human CCRF-CEM cells assessed as cell growth at 1 uM after 48 hrs by sulforhodamine B assay relative to control; format: functional; settings: read-out: Activity
[19] = system: MOLT-4; assay: Cytotoxicity against human MOLT4 cells assessed as cell growth at 1 uM after 48 hrs by sulforhodamine B assay relative to control; format: functional; settings: MOLT-4, 48 h, read-out: Activity
[20] = system: SF-268; assay: Cytotoxicity against human SF268 cells assessed as cell growth at 1 uM after 48 hrs by sulforhodamine B assay relative to control; format: functional; settings: SF-268, 48 h, read-out: Activity
[21] = system: SNB-19; assay: Cytotoxicity against human SNB19 cells assessed as cell growth at 1 uM after 48 hrs by sulforhodamine B assay relative to control; format: functional; settings: SNB-19, 48 h, read-out: Activity
[22] = system: SK-MEL-28; assay: Cytotoxicity against human SK-MEL-28 cells assessed as cell growth at 1 uM after 48 hrs by sulforhodamine B assay relative to control; format: functional; settings: SK-MEL-28, 48 h, read-out: Activity
[23] = system: A498; assay: Cytotoxicity against human A498 cells assessed as cell growth at 1 uM after 48 hrs by sulforhodamine B assay relative to control; format: functional; settings: A498, 48 h, read-out: Activity
[24] = system: HL-60(TB); assay: Cytotoxicity against human HL-60(TB) cells assessed as cell growth at 10 uM after 48 hrs by sulforhodamine B assay relative to control; format: functional; settings: HL-60, 48 h, read-out: Activity
[25] = system: SR; assay: Cytotoxicity against human SR cells assessed as cell growth at 10 uM after 48 hrs by sulforhodamine B assay relative to control; format: functional; settings: read-out: Activity
[26] = system: NCI-H23; assay: Cytotoxicity against human NCI-H23 cells assessed as cell growth at 10 uM after 48 hrs by sulforhodamine B assay relative to control; format: functional; settings: NCI-H23, 48 h, read-out: Activity
[27] = system: SW-620; assay: Cytotoxicity against human SW620 cells assessed as cell growth at 10 uM after 48 hrs by sulforhodamine B assay relative to control; format: functional; settings: SW-620, 48 h, read-out: Activity
[28] = system: SF-268; assay: Cytotoxicity against human SF268 cells assessed as cell growth at 10 uM after 48 hrs by sulforhodamine B assay relative to control; format: functional; settings: SF-268, 48 h, read-out: Activity
[29] = system: Malme-3M; assay: Cytotoxicity against human MALME-3M cells assessed as cell growth at 10 uM after 48 hrs by sulforhodamine B assay relative to control; format: functional; settings: read-out: Activity
[30] = system: NCI/ADR-RES; assay: Cytotoxicity against human NCI/ADR-RES cells assessed as cell growth at 10 uM after 48 hrs by sulforhodamine B assay relative to control; format: functional; settings: read-out: Activity
[31] = system: MCF7; assay: Cytotoxicity against human MCF7 cells assessed as cell growth at 10 uM after 48 hrs by sulforhodamine B assay relative to control; format: functional; settings: MCF7, 48 h, read-out: Activity
[32] = system: T47D; assay: Cytotoxicity against human T47D cells assessed as cell growth at 10 uM after 48 hrs by sulforhodamine B assay relative to control; format: functional; settings: read-out: Activity
[33] = system: A549; assay: Cytotoxicity against human A549/ATCC cells assessed as cell growth at 100 uM after 48 hrs by sulforhodamine B assay relative to control; format: functional; settings: A549, 48 h, read-out: Activity
[34] = system: NCI-H460; assay: Cytotoxicity against human NCI-H460 cells assessed as cell growth at 100 uM after 48 hrs by sulforhodamine B assay relative to control; format: functional; settings: NCI-H460, 48 h, read-out: Activity
[35] = system: NCI/ADR-RES; assay: Cytotoxicity against human NCI/ADR-RES cells assessed as cell growth at 100 uM after 48 hrs by sulforhodamine B assay relative to control; format: functional; settings: read-out: Activity

`COc1cc(C(=O)/C=C/c2cc(-c3ccc4c(c3)OCO4)n[nH]2)cc(OC)c1OC` showed a GI50 [1] of 2090 nM, a TGI [1] of 6.25 µM and a CC50 [1] of 24.3 µM. For the same compound, the GI50 [2] was 2020 nM, the LC50 [2] was 8.23 µM and the TGI [2] was 4.07 µM. It also gave a GI50 [3] of 1620 nM, an LC50 (lethal concentration, 50% net cell kill) [3] of 8.9 µM and a TGI [3] of 3.8 µM. The GI50 [4] was 2950 nM, the LC50 [4] was 32 µM and the TGI [4] was 9.46 µM. It also gave a GI50 [5] of 4.44 µM, an LC50 [5] of 38.8 µM and a TGI [5] of 14.6 µM. The pIC50 [6] was 6.07, the growth at 0.01 µM [7] was 98% and the growth at 0.01 µM [8] was 97%. The growth at 0.01 µM [9] was 96%, the growth at 0.01 µM [10] was 97% and the growth at 0.01 µM [11] was 100%. It also gave a growth at 0.01 µM [12] of 100%, a growth at 0.01 µM [13] of 97% and a growth at 0.01 µM [14] of 100%. It also gave a growth at 0.01 µM [15] of 97%, a growth at 0.1 µM [16] of 95% and a growth at 0.1 µM [17] of 87%. For the same compound, the growth at 1 µM [18] was 83%, the growth at 1 µM [19] was 94% and the growth at 1 µM [20] was 89%. For the same compound, the growth at 1 µM [21] was 75%, the growth at 1 µM [22] was 92% and the growth at 1 µM [23] was 79%. The growth at 10 µM [24] was -20%, the growth at 10 µM [25] was -19% and the growth at 10 µM [26] was 1%. It also gave a growth at 10 µM [27] of -57%, a growth at 10 µM [28] of -12% and a growth at 10 µM [29] of -41%. The growth at 10 µM [30] was 2%, the growth at 10 µM [31] was -62% and the growth at 10 µM [32] was -34%. For the same compound, the growth at 100 µM [33] was -80%, the growth at 100 µM [34] was -78% and the growth at 100 µM [35] was -19%.

`COc1ccc(-c2cc(/C=C/C(=O)c3ccc(N)cc3)[nH]n2)cc1` was tested, and the GI50 [1] was 1840 nM, the TGI [1] was 9.27 µM and the CC50 [1] was 31.6 µM. The GI50 [2] was 1830 nM, the LC50 [2] was 6.17 µM and the TGI [2] was 3.36 µM. For the same compound, the GI50 [3] was 1690 nM, the LC50 (lethal concentration, 50% net cell kill) [3] was 56.2 µM and the TGI [3] was 5.41 µM. For the same compound, the GI50 [4] was 1900 nM, the LC50 [4] was 9.36 µM and the TGI [4] was 4.21 µM. The GI50 [5] was 4.72 µM, the LC50 [5] was 63.6 µM and the TGI [5] was 18 µM. It also gave a pIC50 [6] of 6.10, a growth at 0.01 µM [7] of 99% and a growth at 0.01 µM [8] of 88%. It also gave a growth at 0.01 µM [9] of 95%, a growth at 0.01 µM [10] of 96% and a growth at 0.01 µM [11] of 97%. For the same compound, the growth at 0.01 µM [12] was 107%, the growth at 0.01 µM [13] was 97% and the growth at 0.01 µM [14] was 93%. It also gave a growth at 0.01 µM [15] of 92%, a growth at 0.1 µM [16] of 101% and a growth at 0.1 µM [17] of 91%. For the same compound, the growth at 1 µM [18] was 61%, the growth at 1 µM [19] was 80% and the growth at 1 µM [20] was 78%. The growth at 1 µM [21] was 75%, the growth at 1 µM [22] was 91% and the growth at 1 µM [23] was 90%. The growth at 10 µM [24] was -8%, the growth at 10 µM [25] was -12% and the growth at 10 µM [26] was 8%. The growth at 10 µM [27] was -26%, the growth at 10 µM [28] was -29% and the growth at 10 µM [29] was -23%. The growth at 10 µM [30] was 9%, the growth at 10 µM [31] was -30% and the growth at 10 µM [32] was -1%. For the same compound, the growth at 100 µM [33] was -75%, the growth at 100 µM [34] was -70% and the growth at 100 µM [35] was -38%.
